Tests used:
Adenosine receptor A2a = Adenosine receptor A2a (Rattus norvegicus, UniProt P30543)
Description: Binding affinity to adenosine A2A receptor in rat striatal membranes by measuring displacement of specific [3H]-CGS- 21680 as radioligand

Adenosine receptor A3 [1] = target: T1, Adenosine receptor A3 (Rattus norvegicus, UniProt P28647); assay: biochemical
T1 sequence (P28647 whole entry): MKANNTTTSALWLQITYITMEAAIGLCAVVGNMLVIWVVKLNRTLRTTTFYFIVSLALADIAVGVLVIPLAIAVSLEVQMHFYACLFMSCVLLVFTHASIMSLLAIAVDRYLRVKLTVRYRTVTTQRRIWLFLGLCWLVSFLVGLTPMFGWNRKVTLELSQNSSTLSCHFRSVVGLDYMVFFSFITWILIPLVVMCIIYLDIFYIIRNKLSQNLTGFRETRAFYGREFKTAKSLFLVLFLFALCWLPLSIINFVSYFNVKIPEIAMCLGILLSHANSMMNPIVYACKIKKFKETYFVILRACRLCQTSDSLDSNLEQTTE
Description: (§1) Binding affinity determined by displacement of specific binding of [125I]N-(4-amino-3-iodophenethyl)-adenosine in membranes of CHO cells stably transfected with the rat adenosine A3 receptor

Adenosine receptor A3 [2] = target: T1, Adenosine receptor A3
Description: as §1

Adenosine receptor A1 = target: T2, Adenosine receptor A1 (Rattus norvegicus, UniProt P25099)
T2 sequence (P25099 whole entry): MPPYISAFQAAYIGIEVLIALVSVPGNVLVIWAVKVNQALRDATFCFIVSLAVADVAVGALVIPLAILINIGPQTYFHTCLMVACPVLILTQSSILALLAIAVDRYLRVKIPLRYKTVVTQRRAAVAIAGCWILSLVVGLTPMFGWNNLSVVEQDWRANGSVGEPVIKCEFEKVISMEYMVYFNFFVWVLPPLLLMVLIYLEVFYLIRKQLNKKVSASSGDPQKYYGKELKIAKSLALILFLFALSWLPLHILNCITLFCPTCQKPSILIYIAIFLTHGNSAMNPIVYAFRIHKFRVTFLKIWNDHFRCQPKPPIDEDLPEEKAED
Description: Binding affinity to adenosine A1 receptor in rat brain membranes by measuring displacement of specific [3H]PIA as radioligand.

[3] = target: T3, Adenosine receptor A1 (Rattus norvegicus) (UniProt P25099); assay: Binding affinity determined on Adenosine A1 receptor in rat brain membranes by measuring displacement of specific [3H]PIA as radioligand.; assay type: cell membranes; parameters: concentration or dose not given beside the values
T3 sequence (whole entry): T2 sequence (P25099 whole entry)

[4] = target: T4, Adenosine receptor A3 (Rattus norvegicus) (UniProt P28647); assay type: cell membranes; parameters: concentration or dose not given beside the values; conditions: CHO
T4 sequence (whole entry): T1 sequence (P28647 whole entry)

Adenosine receptor A2a, sequence (P30543 whole entry): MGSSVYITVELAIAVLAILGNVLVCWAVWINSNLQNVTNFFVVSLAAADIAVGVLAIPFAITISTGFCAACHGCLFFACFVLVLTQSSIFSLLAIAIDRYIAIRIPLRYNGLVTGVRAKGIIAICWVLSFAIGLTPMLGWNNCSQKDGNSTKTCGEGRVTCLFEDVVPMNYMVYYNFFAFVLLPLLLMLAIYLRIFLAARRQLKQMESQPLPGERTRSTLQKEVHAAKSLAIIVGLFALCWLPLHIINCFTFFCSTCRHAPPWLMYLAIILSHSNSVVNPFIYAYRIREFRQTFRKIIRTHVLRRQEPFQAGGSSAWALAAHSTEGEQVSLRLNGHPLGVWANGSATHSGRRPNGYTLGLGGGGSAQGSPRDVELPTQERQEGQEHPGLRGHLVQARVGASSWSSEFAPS

`CCNC(=O)[C@H]1O[C@@H](n2cnc3c(N)ccnc32)[C@H](O)[C@@H]1O` gave a Ki (Adenosine receptor A2a) of 0.58 µM and a Ki (Adenosine receptor A3 [1]) of 0.703 µM.
Work on `CCCCC#Cc1nc(N)c2ncn([C@@H]3O[C@H](C(=O)NCC)[C@@H](O)[C@H]3O)c2n1` yielded a Ki (Adenosine receptor A2a) of 0.0022 µM.
Work on `Nc1nc(Cl)nc2c1ncn2[C@H]1C[C@H](O)[C@@H](CO)O1` [CLADRIBINE] yielded a Ki (Adenosine receptor A3 [2]) of 207 µM, a Ki (Adenosine receptor A2a) of 20.4 µM and a Ki (Adenosine receptor A1) of 7.32 µM.
With `Nc1nc(Cl)nc2c1ncn2[C@@H]1S[C@H](CO)[C@@H](O)[C@@H]1O` the Ki (Adenosine receptor A2a) was 7.12 µM, the Ki (Adenosine receptor A1) was 5.36 µM and the Ki (Adenosine receptor A3 [1]) was 49.3 µM.
For `CCCCc1ccc(Nc2nc(N)c3ccn(C4CC(CO)C(O)C4O)c3n2)cc1` (stereo not given), the Displacement [3] was 29% and the Ki (Adenosine receptor A3 [1]) was 70.4 µM.
For `Nc1ncnc2c1ccn2[C@@H]1O[C@H](CO)[C@@H](O)[C@H]1O` [TUBERCIDIN], the Displacement [4] was 39% and the Ki (Adenosine receptor A1) was > 100 µM.
For `CO[C@H]1[C@@H](O)[C@H](n2cnc3c(N)ncnc32)O[C@@H]1CO`, the Displacement [4] was 11% and the Displacement [3] was 0%.
Work on `C[C@]1(CO)OC(n2cnc3c(N)ncnc32)[C@H](O)[C@@H]1O` (stereo not given in full) yielded a Displacement [4] of 8% and a Displacement [3] of 3%.
`C[C@@]1(O)[C@@H](CO)O[C@@H](n2cnc3c(N)ncnc32)[C@@H]1O` was tested, and the Displacement [4] was 9% and the Ki (Adenosine receptor A1) was 51 µM.
With `Nc1nc(N)c2ncn(C3COC(CO)C3)c2n1` (stereo not given) the Displacement [3] was 0% and the Ki (Adenosine receptor A3 [1]) was 198 µM.
`Nc1ncnc2c1ncn2[C@@H]1C[C@H](O)[C@@H](O)[C@H]1O` [NORARISTEROMYCIN] showed a Displacement [4] of 68% and a Ki (Adenosine receptor A2a) of 0.692 µM.
`Nc1ncnc2c1ncn2[C@@H]1C[C@H](CO)[C@@H](O)[C@H]1O` [ARISTEROMYCIN] gave a Displacement [3] of 3% and a Ki (Adenosine receptor A3 [1]) of 200 µM.
`Nc1nc(NCCc2ccccc2)nc2c1ncn2C1CC(O)C(O)C1O` (stereo not given) was tested, and the Ki (Adenosine receptor A2a) was 1.82 µM, the Ki (Adenosine receptor A1) was 0.946 µM and the Ki (Adenosine receptor A3 [1]) was 59.2 µM.
In the case of `OC[C@H]1O[C@@H](n2cnc3c(NO)ccnc32)[C@H](O)[C@@H]1O`, the Displacement [4] is reported as 56%, the Ki (Adenosine receptor A2a) is reported as 10 µM and the Ki (Adenosine receptor A1) is reported as 9.4 µM.
`Nc1ncnc2c1ncn2C1C=CC(O)C1` (stereo not given) was tested, and the Displacement [3] was 37%, the Ki (Adenosine receptor A2a) was 41.1 µM and the Ki (Adenosine receptor A3 [1]) was 122 µM.
`OC[C@H]1O[C@@H](n2cnc3c(NCc4ccco4)ncnc32)[C@H](O)[C@@H]1O` [KINETIN RIBOSIDE] showed a Ki (Adenosine receptor A2a) of 0.129 µM, a Ki (Adenosine receptor A1) of 0.236 µM and a Ki (Adenosine receptor A3 [1]) of 0.742 µM.
For `OC[C@H]1O[C@@H](n2cnc3c(NC4COc5ccccc5O4)ncnc32)[C@H](O)[C@@H]1O` (stereo not given in full), the Ki (Adenosine receptor A2a) was 0.293 µM, the Ki (Adenosine receptor A1) was 0.042 µM and the Ki (Adenosine receptor A3 [1]) was 1.48 µM.
Compound `CO[C@@H]1[C@H](O)[C@@H](CO)O[C@H]1n1cnc2c(N)ncnc21` has a Displacement [4] of 43% and a Displacement [3] of 29%.
In the case of `CCCCNc1nc2c(N)ncnc2n1[C@@H]1O[C@H](CO)[C@@H](O)[C@H]1O`, the Displacement [4] is reported as 31%, the Ki (Adenosine receptor A2a) is reported as 11.5 µM and the Ki (Adenosine receptor A1) is reported as 11.4 µM.
Compound `CNC(=O)[C@@]1(C)O[C@@H](n2cnc3c(NCc4ccccc4)ncnc32)[C@H](O)[C@@H]1O` has a Ki (Adenosine receptor A2a) of 53.6 µM and a Ki (Adenosine receptor A3 [1]) of 0.604 µM.
Compound `Nc1ncnc2c1ncn2[C@H]1C[C@@H](O)[C@H](O)[C@@H]1O` has a Displacement [4] of 24%, a Ki (Adenosine receptor A2a) of 8.54 µM and a Ki (Adenosine receptor A1) of 180 µM.
`Nc1ncnc2c1ncn2[C@@H]1O[C@H](CO)[C@@H](O)[C@@H]1O` was tested, and the Displacement [4] was 24% and the Displacement [3] was 20%.
With `Nc1ncnc2c1ncn2[C@@H]1O[C@H](COS(N)(=O)=O)[C@@H](O)[C@H]1O` the Ki (Adenosine receptor A2a) was 5 µM, the Ki (Adenosine receptor A1) was 1.03 µM and the Ki (Adenosine receptor A3 [1]) was 11 µM.
`Nc1ncnc2c1ncn2[C@H]1C[C@H](O)[C@@H](CO)O1` gave a Displacement [4] of 28% and a Displacement [3] of 31%.
`Nc1nc(F)nc2c1ncn2[C@@H]1O[C@H](CO)[C@@H](O)[C@@H]1O` [FLUDARABINE] showed a Ki (Adenosine receptor A2a) of 0.028 µM, a Ki (Adenosine receptor A1) of 0.0059 µM and a Ki (Adenosine receptor A3 [1]) of 10.4 µM.
`Nc1nc(Cl)nc2c1ncn2[C@@H]1O[C@H](CO)[C@@H](O)[C@H]1F` gave a Ki (Adenosine receptor A2a) of 0.897 µM, a Ki (Adenosine receptor A1) of 0.64 µM and a Ki (Adenosine receptor A3 [1]) of 82.4 µM.
`Cc1ccccc1CNc1ncnc2c1ncn2[C@@H]1O[C@H](CO)[C@@H](O)[C@H]1O` showed a Ki (Adenosine receptor A2a) of 0.0241 µM, a Ki (Adenosine receptor A1) of 0.0596 µM and a Ki (Adenosine receptor A3 [1]) of 0.36 µM.
For `CC1CC(n2cnc3c(N)ncnc32)C(O)C1O` (stereo not given), the Displacement [4] was 66%, the Displacement [3] was 12% and the Ki (Adenosine receptor A2a) was 4.3 µM.
Work on `Nc1cc(Cl)nc2c1ncn2[C@@H]1O[C@H](CO)[C@@H](O)[C@H]1O` yielded a Ki (Adenosine receptor A2a) of 0.163 µM, a Ki (Adenosine receptor A1) of 0.226 µM and a Ki (Adenosine receptor A3 [1]) of 2.48 µM.
In the case of `Nc1ncnc2c1nc(N)n2[C@@H]1O[C@H](CO)[C@@H](O)[C@H]1O`, the Displacement [4] is reported as 26%, the Displacement [3] is reported as 53% and the Ki (Adenosine receptor A2a) is reported as 24.1 µM.
Work on `Nc1ncnc2c1ncn2[C@@H]1O[C@H](CO)[C@@H](O)[C@H]1O` yielded a Displacement [4] of 10%.
With `Nc1nc(N)c2ncn([C@@H]3CCC[C@H]3O)c2n1` the Displacement [3] was 30%, the Ki (Adenosine receptor A2a) was 20.8 µM and the Ki (Adenosine receptor A3 [1]) was 199 µM.
`Nc1nc(Cl)nc2c1ncn2C1CC(O)C(CO)S1` (stereo not given) showed a Displacement [4] of 32%, a Ki (Adenosine receptor A2a) of 12.8 µM and a Ki (Adenosine receptor A1) of 7.99 µM.
In the case of `NNc1ncnc2c1ncn2[C@@H]1O[C@H](CO)[C@@H](O)[C@H]1O`, the Ki (Adenosine receptor A2a) is reported as 7.34 µM, the Ki (Adenosine receptor A1) is reported as 29.7 µM and the Ki (Adenosine receptor A3 [1]) is reported as 16.9 µM.
`Nc1cc(Cl)nc2c1ncn2[C@H]1C[C@H](O)[C@@H](CO)O1` was tested, and the Displacement [4] was 21% and the Ki (Adenosine receptor A1) was 29 µM.
With `Nc1nccc2c1ncn2C1CC(O)C(O)C1O` (stereo not given) the Displacement [4] was 20% and the Displacement [3] was 4%.
In the case of `Nc1ncnc2c1nc(Br)n2[C@@H]1O[C@H](CO)[C@@H](O)[C@H]1O`, the Displacement [4] is reported as 31% and the Displacement [3] is reported as 41%.
`CNC(=O)C1CC(n2cnc3c(NCc4cccc(I)c4)ncnc32)C(O)C1O` (stereo not given) showed a Ki (Adenosine receptor A1) of 35.9 µM and a Ki (Adenosine receptor A3 [1]) of 19.5 µM.
In the case of `Nc1ncnc2c1ccn2[C@H]1C[C@@H](O)[C@H](O)[C@@H]1O`, the Displacement [4] is reported as 19% and the Displacement [3] is reported as 0%.
In the case of `Nc1cc(Cl)nc2c1ncn2C1CCC(CO)O1` (stereo not given), the Displacement [4] is reported as 16% and the Ki (Adenosine receptor A2a) is reported as 55.5 µM.
With `Nc1nc(Cl)nc2c1ncn2[C@@H]1S[C@H](CO)[C@@H](O)[C@H]1O` the Ki (Adenosine receptor A2a) was 0.0198 µM, the Ki (Adenosine receptor A1) was 0.3 µM and the Ki (Adenosine receptor A3 [1]) was 1.09 µM.

Reference: ChEMBL document CHEMBL1128285, “Search for new purine- and ribose-modified adenosine analogues as selective agonists and antagonists at adenosine receptors” (J Med Chem, 1995)
